The test system of the data set is human HepG2 cell lines. The data set is classed as cell-based. Conditions: human HepG2 cell line.

For the compound `Oc1cc(F)c(-c2c(C3CC3)nc3cnc(-c4ccc(F)c(S(F)(F)(F)(F)F)c4)cn23)c(F)c1` [Example 56, 4-[2-Cyclopropyl-6-(4-fluoro-3-pentafluorosulfanyl-phenyl)-imidazo[1,2-a]pyrazin-3-yl]-3,5-difluoro-phenol], the “Cytotox HepG2” value came to 10.1 µM.
For `CC(C)c1cc(-c2cn3c(-c4ccc5[nH]ncc5c4F)c(C(C)C)nc3cn2)ccc1F` [Example 74, 3-(4-Fluoro-1H-indazol-5-yl)-6-(4-fluoro-3-isopropyl-phenyl)-2-isopropyl-imidazo[1,2-a]pyrazine] the value was 11.0 µM; for `CC(C)c1cc(-c2cn3c(-c4ccc5[nH]ncc5c4Cl)c(C(F)(F)F)nc3cn2)ccc1F` [Example 83, 3-(4-Chloro-1H-indazol-5-yl)-6-(4-fluoro-3-isopropyl-phenyl)-2-trifluoromethyl-imidazo[1,2-a]pyrazine], 6.6 µM; for `CC(C)c1nn2cnc(-c3cccc(C(F)(F)F)c3)cc2c1-c1c(F)cc(O)cc1F` [Example 24, 3,5-difluoro-4-(2-isopropyl-5-(3-(trifluoromethyl)phenyl)pyrazolo[1,5-c]pyrimidin-3-yl)phenol], 8.4 µM.
The figure for `CCc1nc2cnc(-c3ccc(F)c(C(F)(F)F)c3)cn2c1-c1c(F)cc(O)cc1F` [Example 36, 3,5-difluoro-4-[2-ethyl-6-[4-fluoro-3-(trifluoromethyl)phenyl]imidazo[1,2-a]pyrazin-3-yl]phenol] is 8.3 µM.
As for `Fc1ccc(-c2cn3c(-c4ccc5[nH]ncc5c4F)c(C4CC4)nc3cn2)cc1C(F)(F)F` [Example 32, 4-fluoro-5-{2-cyclopropyl-6-[4-fluoro-3-(trifluoromethyl)phenyl]imidazo[1,2-a]pyrazin-3-yl}-1H-indazole], the “Cytotox HepG2” value was found to be 16.1 µM.
For `CC(C)c1cc(-c2cn3c(-c4ccc5[nH]ncc5c4F)c(C4CC4)nc3cn2)ccc1F` [Example 79, 2-Cyclopropyl-3-(4-fluoro-1H-indazol-5-yl)-6-(4-fluoro-3-isopropyl-phenyl)-imidazo[1,2-a]pyrazine], the “Cytotox HepG2” value amounted to 15.7 µM.
Turning to `Cc1nc2cnc(-c3cccc(C(F)(F)C(F)(F)F)c3)cn2c1-c1c(F)cc(O)cc1F` [Example 49, 3,5-difluoro-4-[2-methyl-6-[3-(pentafluoroethyl)phenyl]imidazo[1,2-a]pyrazin-3-yl]phenol], the “Cytotox HepG2” value came out at 9.3 µM.
The figure for `CC(C)Oc1cccc(-c2cn3c(-c4ccc5[nH]ncc5c4F)c(C(F)(F)F)nc3cn2)c1` [Example 86, 3-(4-Fluoro-1H-indazol-5-yl)-6-(3-isopropoxy-phenyl)-2-trifluoromethyl-imidazo[1,2-a]pyrazine] is 13.2 µM.
As to `Fc1ccc(-c2cn3c(-c4ccc5[nH]ncc5c4F)c(C(F)(F)F)nc3cn2)cc1C1CC1` [Example 84, 6-(3-Cyclopropyl-4-fluoro-phenyl)-3-(4-fluoro-1H-indazol-5-yl)-2-trifluoromethyl-imidazo[1,2-a]pyrazine], the “Cytotox HepG2” value worked out at 10.5 µM.
The figure for `Fc1c(-c2c(C(F)(F)F)nc3cnc(-c4ccnc(C(F)(F)F)c4)cn23)ccc2[nH]ncc12` [Example 88, 3-(4-Fluoro-1H-indazol-5-yl)-2-trifluoromethyl-6-(2-trifluoromethyl-pyridin-4-yl)-imidazo[1,2-a]pyrazine] is 7.0 µM; for `CCc1nc2cnc(-c3ccc(F)c(C(F)(F)F)c3)cn2c1-c1ccc2[nH]ncc2c1F` [Example 37, 4-fluoro-5-{2-ethyl-6-[4-fluoro-3-(trifluoromethyl)phenyl]imidazo[1,2-a]pyrazin-3-yl}-1H-indazole] it is 13.1 µM.
For `Fc1ccc(-c2cn3c(-c4ccc5[nH]ncc5c4F)c(C(F)(F)F)nc3cn2)cc1S(F)(F)(F)(F)F` [Example 65, 3-(4-Fluoro-1H-indazol-5-yl)-6-(4-fluoro-3-pentafluorosulfanyl-phenyl)-2-trifluoromethyl-imidazo[1,2-a]pyrazine] the value was 11.1 µM.
For `Fc1ccc(-c2cn3c(-c4ccc5[nH]ncc5c4F)c(C4CC4)nc3cn2)cc1S(F)(F)(F)(F)F` [Example 57, 2-Cyclopropyl-3-(4-fluoro-1H-indazol-5-yl)-6-(4-fluoro-3-pentafluorosulfanyl-phenyl)-imidazo[1,2-a]pyrazine] the value was 14.8 µM; for `Fc1c(-c2c(C(F)(F)F)nc3cnc(-c4cccc(C(F)(F)C(F)(F)F)c4)cn23)ccc2[nH]ncc12` [Example 29, 4-fluoro-5-{2-trifluoromethyl-6-[3-(pentafluoroethyl)phenyl]imidazo[1,2-a]pyrazin-3-yl}-1H-indazole], 8.9 µM.
Consider `CC(C)c1nn2cnc(-c3ccc(F)c(C(F)(F)C(F)(F)F)c3)cc2c1-c1ccc2[nH]ncc2c1F` [Example 58, 3-(4-Fluoro-1H-indazol-5-yl)-5-(4-fluoro-3-pentafluoroethyl-phenyl)-2-isopropyl-pyrazolo[1,5-c]pyrimidine], for which the “Cytotox HepG2” value came to 10.8 µM.
As for `COc1ccc(-c2c(C(F)(F)F)nc3cnc(-c4cccc(C(F)(F)C(F)(F)F)c4)cn23)cc1O` [Example 30, 2-methoxy-5-[2-(trifluoromethyl)-6-[3-(pentafluoroethyl)phenyl]imidazo[1,2-a]pyrazin-3-yl]phenol], the “Cytotox HepG2” value came to 11.1 µM.
Regarding `Fc1ccc(-c2cn3c(-c4ccc5[nH]ncc5c4F)c(C(F)(F)F)nc3cn2)cc1OC(F)(F)F` [Example 71, 3-(4-Fluoro-1H-indazol-5-yl)-6-(4-fluoro-3-trifluoromethoxy-phenyl)-2-trifluoromethyl-imidazo[1,2-a]pyrazine], the “Cytotox HepG2” value amounted to 12.2 µM.

Source of the values: patent US12060355B2, “Compounds for use in the treatment of fascioliasis” (Merck Patent GmbH, priority 2018, dated 2024).
